Holding throughout (test): NCI-60 cell line screen, 48 h
Test [1] relates to NCI-H522 lung.
For test [2], the system named is UACC-62 melanoma.
Test [3] deals with RPMI-8226 leukemia.
Test [4] has as its system MDA-MB-435.
Test [5] concerns SR leukemia.
In test [6] the test system is SK-MEL-5 melanoma.
The test system of test [7] is CAKI-1 renal.
In test [8] the test system is U251 CNS.
Test [9] relates to LOX IMVI melanoma.
Test [10] deals with HCC-2998 colon.

Values joined by “and” are separate entries in the source; they are usually repeats but may differ in a detail not shown here. Equal entries are not always repeated.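 Where inhibition never reached the appropriate level, the endpoint shown equals the highest concentration tested. Otherwise, values were interpolated linearly from a five-concentration, 48-hour dose response in 96-well plates. Abbreviation: GI50, concentration required for 50% inhibition of growth. TGI marks complete inhibition of growth.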 Where only a bound is given, the exact number is not on record here.

In the case of `Cc1cc(C)c2nc3c(c(C(O)C4CCCCN4)c2c1)CC/C3=C\c1ccc(Cl)cc1` (centres undefined), the TGI was more than 100 µM in test [1]; more than 100 µM in [2]; more than 100 µM in test [3]; more than 100 µM in [4]; more than 100 µM in test [5]; 92.2 µM in test [6]. The TGI in test [7] and in test [8] was more than 100 µM throughout.

In the case of `O=C(O)CNc1ccc2c(c1)Cc1cc(Br)ccc1-2`, the TGI is 56.8 µM in [1]; 76.4 µM in test [2]; more than 95.5 µM in test [3]; 45 µM in test [4]; 1.31 µM in test [5]; more than 100 µM in test [9]. The TGI in [6] was 25.8 µM; in test [7], 98.4 µM; in [8], 97 µM.

`N[C@@H]1CCCN(c2c(Br)cnc3[nH]cc(NC(=O)C4CC4)c23)C1`: the GI50 in test [1] is 13 µM; in test [2], 0.464 µM; in test [3], 0.68 µM; in [10] it was 0.399 µM; in test [5], 0.112 µM; in test [9] it was 0.435 µM. Further, the figures for the GI50 in test [6], in test [7] and in test [8] were 0.469 µM, 0.518 µM and 7.96 µM, respectively. Further, the TGI was more than 100 µM in test [1]; more than 100 µM in test [2]; more than 100 µM in test [10]; more than 100 µM in [5]; 13.4 µM in test [9]; 2.24 µM in [6]. The figures for the TGI in [7] and in test [8] were 6 µM and more than 100 µM, respectively.

On to `O=c1ccc(N=Nc2ccccc2)ccc1O`, for which the TGI in test [1] amounted to 56.3 µM; in test [2], 25.4 µM; in test [4] it was 30.7 µM; in test [5], 22.2 µM; in test [9], 17.4 µM; in test [6], 23.6 µM. Further, the TGI in test [7] is 29.4 µM; in [8] it was 20.2 µM.

As for `CCCN1C(=O)/C(=C/c2ccc(SC(F)(F)F)cc2)SC1=Nc1ccc(OC)cc1`, the GI50 was 10 µM in test [2]; 11.8 µM in [3]; 20 µM in test [4]; 37.7 µM in [5]; 4.36 µM in test [9]; 17.3 µM in test [6]. The GI50 in test [7] is 2.63 µM; in [8], 6.51 µM. Also, the TGI in test [2] was 25.4 µM; in test [3], more than 50 µM; in test [4], more than 50 µM; in [5], more than 50 µM; in test [9], more than 50 µM; in [6] it was more than 50 µM. The TGI in [7] is 12.5 µM; in [8], 16.9 µM.

Take `Cc1c(Cl)ccc2c1NC(=O)C2(O)CC(=O)c1ccc(Cl)cc1` (centres undefined): the TGI in test [1] was more than 100 µM; in test [2], more than 71.5 µM; in test [3], more than 84.3 µM; in test [10], more than 56.2 µM; in test [5], more than 57.1 µM; in [9], more than 46.3 µM. For the same molecule, the TGI in test [6], in test [7] and in test [8] was more than 100 µM each time.

For the molecule `COC(=O)[C@@]12OC[C@]34[C@H]([C@@H](O)[C@@H]1O)[C@@]1(C)CC(=O)C(O)=C(C)[C@@H]1C[C@H]3OC(=O)[C@H](OC(=O)/C=C(\C)C(C)C)[C@@H]24`, the TGI was 0.00723 µM in [1]; 0.0131 µM and 0.023 µM in test [2]; 0.0129 µM and < 0.0409 µM and 0.0545 µM in test [3]; 0.0415 µM and 0.0128 µM in test [4]; 0.00342 µM in test [10]; 0.0369 µM in [5]. Moreover, the TGI in test [6] is 0.00333 µM and 0.0278 µM; in test [7], 0.055 µM and 0.0295 µM and 0.159 µM; in [8] it was 0.0206 µM and 0.0657 µM.

For `C[N+](C)(C)CC1CCC(C[N+](C)(C)C)C1=NO` (centres undefined), the TGI in test [1], in [2], in [3], in [5], in [9] and in [6] was more than 100 µM throughout. The same molecule gave a TGI in [8] of more than 100 µM.

Regarding `COc1cc(C2CC(c3ccccc3)=NN2C=O)ccc1Oc1ccnc2cc(Cl)ccc12` (centres undefined), the GI50 is 5.28 µM in test [1]; 6.76 µM in test [2]; more than 100 µM in [10]; more than 100 µM in test [5]; more than 100 µM in test [9]; 5.2 µM in [7]. The GI50 in test [8] is 19.8 µM. The TGI in test [1], in test [2], in test [10], in test [5], in test [9] and in test [7] was more than 100 µM in each case. Also, the TGI in [8] was more than 100 µM.

As to `CCCC1C[C@H]2CCCCN2[C@H]2CCCN12` (some centres undefined), the TGI is more than 100 µM in [1]; more than 100 µM in test [2]; more than 63.9 µM in test [3]; more than 100 µM in [10]; more than 64 µM in [5]; more than 55 µM in test [9]. The values for the TGI in [6], in test [7] and in [8] were more than 100 µM, more than 100 µM and more than 68 µM, respectively.

For the molecule `Fc1ccccc1CN1COc2c(cc(Cl)c3cccnc23)C1`, the TGI in [1] was determined as 14.1 µM; in test [2], 1.74 µM; in test [4], 8.27 µM; in test [5], 3.85 µM; in test [6], 3.75 µM; in [7], 9.93 µM. In [8], the TGI was 12.8 µM.

For the molecule `OC12CCC3(OC4CCCCO4)c4ccccc4C3C1c1ccccc12` (centres undefined), the TGI in test [1], in test [2], in test [3], in [5], in [9] and in [6] was more than 100 µM in each case. In [8], the TGI was more than 100 µM.

Consider `O=C1C(Cl)=C(Nc2ccc(S(=O)(=O)c3ccc(NC4=C(Cl)C(=O)c5ccccc5C4=O)cc3)cc2)C(=O)c2ccccc21`, for which the GI50 in test [2] was 1.66 µM; in test [3], 1.54 µM; in test [10] it was 2.82 µM; in test [5], 1.27 µM; in [9], 1.49 µM; in test [6], 1.71 µM. Further, the GI50 in test [7] was 1.38 µM. Also, the TGI was 3.18 µM in test [2]; 7.25 µM in [3]; 6.33 µM in [10]; 7.19 µM in [5]; 3.1 µM in test [9]; 3.49 µM in test [6]. Also, the TGI in test [7] turned out to be 2.74 µM.

The values above are taken from PubChem BioAssay (NCI).
